31 molecules from ChEMBL document CHEMBL5385959, “Trifluoroacetic acid-mediated synthesis of xanthene constructs and their extensive anti-tuberculosis evaluation” (RSC Med Chem, 2024) can be followed below.

One assay concerns Bacillus subtilis. Put plainly: Antibacterial activity against Bacillus subtilis assessed as reduction in bacterial growth incubated for 24 hrs by broth dilution method. Format: functional.
For a further assay, the system named is Pseudomonas aeruginosa. Put plainly: Antibacterial activity against Pseudomonas aeruginosa assessed as reduction in bacterial growth incubated for 24 hrs by broth dilution method. Format: functional.
Assay [1] has as its system Mycobacterium tuberculosis. Put plainly: Antibacterial activity against Mycobacterium tuberculosis H37Rv assessed as reduction in bacterial growth incubated for 14 days by CLSI protocol based method. It is filed as functional. As to conditions: 336 h, time 14 day.
For assay [2], the system named is Mycobacterium tuberculosis. Put plainly: Antibacterial activity against Mycobacterium tuberculosis H37Ra assessed as reduction in bacterial growth incubated for 14 days by CLSI protocol based method. Format: functional. As to conditions: 336 h, time 14 day.
For a further assay, the system named is Escherichia coli. Kind of assay: Antibacterial activity against Escherichia coli assessed as reduction in bacterial growth incubated for 24 hrs by broth dilution method. Format: functional.
The test system of assay [3] is Mycobacterium tuberculosis. Kind of assay: Antibacterial activity against GFP-tagged Mycobacterium tuberculosis H37Rv assessed as reduction in GFP expression at half times MIC incubated for 7 days by confocal microscopic analysis. Format: functional, organism-based. As to conditions: time 7.0 day.
The test system of assay [4] is Mycobacterium tuberculosis. Put plainly: Antibacterial activity against Mycobacterium tuberculosis H37Rv assessed as reduction in bacterial growth by broth microdilution method. It is filed as functional.

Converted amounts (≈) assume the structure as drawn. The source made the active and inactive calls. No cut-off for these calls is given here.

Turning to `O=C1CCCC2=C1C(c1cccc(Br)c1)C1=C(CCCC1=O)O2`, the MIC in the assay with Bacillus subtilis is > 128 mg/L; in the assay on Pseudomonas aeruginosa, > 128 mg/L; in assay [1], 64 mg/L (≈ 171 µM); in assay [2] it was 64 mg/L (≈ 171 µM); with Escherichia coli it was > 128 mg/L.
With `COc1ccccc1C1C2=C(CCCC2=O)OC2=C1C(=O)CCC2`, the minimum inhibitory concentration (MIC) in the assay on Bacillus subtilis is > 128 mg/L; in the assay with Pseudomonas aeruginosa, > 128 mg/L; in assay [1] it was 64 mg/L (≈ 197 µM); in assay [2], 64 mg/L (≈ 197 µM); in the assay with Escherichia coli it was > 128 mg/L.
`O=C1CCCC2=C1C(c1ccc(Br)cc1)C1=C(CCCC1=O)O2`: the MIC was > 128 mg/L in the assay with Bacillus subtilis; > 128 mg/L in the assay on Pseudomonas aeruginosa; 64 mg/L (≈ 171 µM) in assay [1]; 64 mg/L (≈ 171 µM) in assay [2]; > 128 mg/L with Escherichia coli.
`CC1(C)CC(=O)C2=C(C1)OC1=C(C(=O)CC(C)(C)C1)C2c1cccc(Br)c1`: the minimum inhibitory concentration (MIC) was > 128 mg/L in the assay with Bacillus subtilis; > 128 mg/L in the assay on Pseudomonas aeruginosa; 64 mg/L (≈ 149 µM) in assay [1]; 64 mg/L (≈ 149 µM) in assay [2]; > 128 mg/L in the assay on Escherichia coli.
On to `CC1(C)CC(=O)C2=C(C1)OC(N)=C(C#N)C2c1cccc(O)c1` (stereo not given), for which the minimum inhibitory concentration (MIC) in assay [1] is > 64 mg/L.
In the case of `O=C1CCCC2=C1C(c1cccc([N+](=O)[O-])c1)C1=C(CCCC1=O)O2`, the minimal inhibitory concentration (MIC) in the assay with Bacillus subtilis was > 128 mg/L; in the assay on Pseudomonas aeruginosa it was > 128 mg/L; in assay [1] it was 64 mg/L (≈ 189 µM); in assay [2] it was 64 mg/L (≈ 189 µM); in the assay with Escherichia coli it was > 128 mg/L.
Consider `O=C1CCCC2=C1C(c1cccc(O)c1)C1=C(CCCC1=O)O2`, for which the MIC in the assay with Bacillus subtilis was > 128 mg/L; in the assay on Pseudomonas aeruginosa, > 128 mg/L; in assay [1], 64 mg/L (≈ 206 µM); in assay [2], 64 mg/L (≈ 206 µM); in the assay on Escherichia coli it was > 128 mg/L.
As to `CC[C@@H](CO)NCCN[C@@H](CC)CO` [ETHAMBUTOL], in assay [3], the result was Active. Moreover, the MIC in assay [1] came out at 1.25 mg/L (≈ 6.12 µM); in assay [2], 0.019 mg/L (≈ 0.093 µM); in assay [4] it was 8 mg/L (≈ 39.2 µM).
On to `O=C1CCCC2=C1C(c1ccc([N+](=O)[O-])cc1[N+](=O)[O-])C1=C(CCCC1=O)O2`, for which the minimum inhibitory concentration (MIC) with Bacillus subtilis was > 128 mg/L; in the assay with Pseudomonas aeruginosa, > 128 mg/L; in assay [1], 64 mg/L (≈ 167 µM); in assay [2], 64 mg/L (≈ 167 µM); in the assay with Escherichia coli it was > 128 mg/L.
For `O=C1CCCC2=C1C(c1cc(O)ccc1O)C1=C(CCCC1=O)O2`, the minimum inhibitory concentration (MIC) in the assay with Bacillus subtilis is > 128 mg/L; in the assay on Pseudomonas aeruginosa it was > 128 mg/L; in assay [1], 64 mg/L (≈ 196 µM); in assay [2] it was 64 mg/L (≈ 196 µM); in the assay with Escherichia coli, > 128 mg/L.
Turning to `CC1(C)CC(=O)C2=C(C1)OC1=C(C(=O)CC(C)(C)C1)C2c1ccc(O)cc1`, the MIC is > 128 mg/L in the assay on Bacillus subtilis; > 128 mg/L with Pseudomonas aeruginosa; 64 mg/L (≈ 175 µM) in assay [1]; 64 mg/L (≈ 175 µM) in assay [2]; > 128 mg/L in the assay on Escherichia coli.
On to `CC1(C)CC(=O)C2=C(C1)OC1=C(C(=O)CC(C)(C)C1)C2c1cccc(Cl)c1`, for which the MIC with Bacillus subtilis is > 128 mg/L; with Pseudomonas aeruginosa it was > 128 mg/L; in assay [1] it was 64 mg/L (≈ 166 µM); in assay [2] it was 64 mg/L (≈ 166 µM); in the assay on Escherichia coli, > 128 mg/L.
For `COc1cccc(C2C3=C(CC(C)(C)CC3=O)OC3=C2C(=O)CC(C)(C)C3)c1`, the minimum inhibitory concentration (MIC) with Bacillus subtilis was > 128 mg/L; in the assay on Pseudomonas aeruginosa it was > 128 mg/L; in assay [1], 64 mg/L (≈ 168 µM); in assay [2], 64 mg/L (≈ 168 µM); in the assay with Escherichia coli, > 128 mg/L.
Regarding `C[C@H]1COc2c(N3CCN(C)CC3)c(F)cc3c(=O)c(C(=O)O)cn1c23` [LEVOFLOXACIN ANHYDROUS], the MIC in assay [1] stood at 2.5 mg/L (≈ 6.92 µM); in assay [2], 0.039 mg/L (≈ 0.108 µM).
For the molecule `COc1cc(C2C3=C(CCCC3=O)OC3=C2C(=O)CCC3)ccc1O`, the MIC is > 128 mg/L with Bacillus subtilis; > 128 mg/L in the assay with Pseudomonas aeruginosa; 64 mg/L (≈ 188 µM) in assay [1]; 64 mg/L (≈ 188 µM) in assay [2]; > 128 mg/L in the assay on Escherichia coli.
`Cc1cccc(C2C3=C(CCCC3=O)OC3=C2C(=O)CCC3)c1`: the MIC in the assay on Bacillus subtilis is > 128 mg/L; in the assay on Pseudomonas aeruginosa, > 128 mg/L; in assay [1] it was 64 mg/L (≈ 208 µM); in assay [2], 64 mg/L (≈ 208 µM); in the assay with Escherichia coli it was > 128 mg/L.
Take `COc1ccc(C2C3=C(CCCC3=O)OC3=C2C(=O)CCC3)cc1O`: the MIC in the assay with Bacillus subtilis is > 128 mg/L; in the assay on Pseudomonas aeruginosa, > 128 mg/L; in assay [1] it was 64 mg/L (≈ 188 µM); in assay [2], 64 mg/L (≈ 188 µM); in the assay with Escherichia coli it was > 128 mg/L.
`N#CC1=C(N)OC2=C(C(=O)CCC2)C1c1ccccc1` (stereo not given): in assay [1], the MIC is > 64 mg/L.
For the molecule `O=C1CCCC2=C1C(c1cccc(Cl)c1)C1=C(CCCC1=O)O2`, the minimum inhibitory concentration (MIC) in the assay with Bacillus subtilis is > 128 mg/L; in the assay on Pseudomonas aeruginosa, > 128 mg/L; in assay [1], 64 mg/L (≈ 195 µM); in assay [2] it was 64 mg/L (≈ 195 µM); with Escherichia coli it was > 128 mg/L.
Regarding `NNC(=O)c1ccncc1` [ISONIAZID], the result in assay [3] was Active. Also, the MIC was 0.625 mg/L (≈ 4.56 µM) in assay [1], 0.019 mg/L (≈ 0.139 µM) in assay [2] and 8 mg/L (≈ 58.3 µM) in assay [4].
As for `N#CC1=C(N)Oc2c(c(=O)oc3ccccc23)C1c1ccc(O)cc1` (stereo not given), the minimum inhibitory concentration (MIC) in assay [1] was > 64 mg/L.
Turning to `CC1(C)CC(=O)C2=C(C1)OC1=C(C(=O)CC(C)(C)C1)C2c1cccc([N+](=O)[O-])c1`, the MIC is > 128 mg/L in the assay on Bacillus subtilis; > 128 mg/L with Pseudomonas aeruginosa; 64 mg/L (≈ 162 µM) in assay [1]; 64 mg/L (≈ 162 µM) in assay [2]; > 128 mg/L with Escherichia coli.
For `O=C1CCCC2=C1C(c1cccc(F)c1)C1=C(CCCC1=O)O2`, the minimal inhibitory concentration (MIC) in the assay with Bacillus subtilis was > 128 mg/L; in the assay on Pseudomonas aeruginosa it was > 128 mg/L; in assay [1], 64 mg/L (≈ 205 µM); in assay [2] it was 64 mg/L (≈ 205 µM); in the assay with Escherichia coli it was > 128 mg/L.
With `O=C1CCCC2=C1C(c1ccc([N+](=O)[O-])cc1)C1=C(CCCC1=O)O2`, the MIC in the assay on Bacillus subtilis was > 128 mg/L; in the assay with Pseudomonas aeruginosa, > 128 mg/L; in assay [1] it was 64 mg/L (≈ 189 µM); in assay [2], 64 mg/L (≈ 189 µM); in the assay on Escherichia coli, > 128 mg/L.
As for `CC1(C)CC(=O)C2=C(C1)OC1=C(C(=O)CC(C)(C)C1)C2c1ccc(C#N)cc1`, the MIC in the assay with Bacillus subtilis was > 128 mg/L; in the assay on Pseudomonas aeruginosa, > 128 mg/L; in assay [1] it was 64 mg/L (≈ 170 µM); in assay [2], 64 mg/L (≈ 170 µM); in the assay on Escherichia coli, > 128 mg/L.
Consider `CO[C@H]1/C=C/O[C@@]2(C)Oc3c(C)c(O)c4c(O)c(c(/C=N/N5CCN(C)CC5)c(O)c4c3C2=O)NC(=O)/C(C)=C\C=C\[C@H](C)[C@H](O)[C@@H](C)[C@@H](O)[C@@H](C)[C@H](OC(C)=O)[C@@H]1C` [RIFAMPIN], for which, in assay [4], the minimal inhibitory concentration (MIC) came out at 8 mg/L (≈ 9.72 µM).
As to `COc1ccc(C2C3=C(CCCC3=O)OC3=C2C(=O)CCC3)cc1`, the minimal inhibitory concentration (MIC) was > 128 mg/L in the assay with Bacillus subtilis; > 128 mg/L with Pseudomonas aeruginosa; 16 mg/L (≈ 49.3 µM) in assay [1]; 16 mg/L (≈ 49.3 µM) in assay [2]; > 128 mg/L with Escherichia coli.
Turning to `COc1ccc(OC)c(C2C3=C(CCCC3=O)OC3=C2C(=O)CCC3)c1`, the minimum inhibitory concentration (MIC) is > 128 mg/L with Bacillus subtilis; > 128 mg/L in the assay on Pseudomonas aeruginosa; 64 mg/L (≈ 181 µM) in assay [1]; 64 mg/L (≈ 181 µM) in assay [2]; > 128 mg/L in the assay with Escherichia coli.
As for `O=C1CCCC2=C1C(c1ccccc1)C1=C(CCCC1=O)O2`, the MIC is > 128 mg/L with Bacillus subtilis; > 128 mg/L in the assay with Pseudomonas aeruginosa; 64 mg/L (≈ 217 µM) in assay [1]; 64 mg/L (≈ 217 µM) in assay [2]; > 128 mg/L in the assay with Escherichia coli.
In the case of `CC1(C)CC(=O)C2=C(C1)OC1=C(C(=O)CC(C)(C)C1)C2c1cccc(O)c1`, the minimum inhibitory concentration (MIC) in the assay with Bacillus subtilis was > 128 mg/L; in the assay with Pseudomonas aeruginosa it was > 128 mg/L; in assay [1] it was 64 mg/L (≈ 175 µM); in assay [2], 64 mg/L (≈ 175 µM); in the assay with Escherichia coli, > 128 mg/L.
For the molecule `CC1(C)CC(=O)C2=C(C1)OC(N)=C(C#N)C2c1ccc(O)cc1` (stereo not given), the MIC in assay [1] was > 64 mg/L.
